How the values were obtained:
[1] = tested on: MCF-7 (human breast cancer); assay: CCK-8 anti-proliferation assay, MCF-7; format: cell-based; conditions: Homo sapiens, MCF7; CCK-8, 48 h, mean ± SD
Method: To evaluate their spectrum of anti-proliferative activity, further CCK-8 assays were carried out with the selected compounds (5a/5b, 8a/8b, 33a/33b, and 36a/36b) on MCF-7 (human breast cancer), A375 (human malignant melanoma), DU145 (human prostate cancer), and CT26 (mouse colon cancer) cell lines. The selected compounds had moderate to potent antitumor activity on the four cell lines, indicating their broad spectrum of antitumor activity (Table 5).
(§1) MCF-7, A375, and HeLa cells were cultured in DMEM, HCT116 cells were cultured in McCoy's 5A medium, and DU145 and CT26 were cultured in RPMI 1640 with 10% FBS, 1% penicillin-streptomycin solution (10,000 U/mL penicillin and 10,000 μg/mL streptomycin) at 37 °C under 5% CO2. The cells were seeded in 96-well plates (4 × 10^3 cells/well) overnight and then treated with various concentrations (1–50 μmol/L) of the compound. After 48 h, the cell viability was measured by CCK-8 assay. The absorbance of each well was measured using a microplate reader (Multiskan FC, Thermo Fisher Scientific, Massachusetts, USA) at 450 nm wavelength. Assays were performed in triplicate. Compound concentrations that inhibited cell growth by 50% (IC50) were calculated from the dose–response curves of each cell line. Data are mean ± SD values from three independent experiments.

HeLa cells = assay: CCK-8 anti-proliferation assay, HeLa; format: cell-based, human; conditions: Homo sapiens, HeLa, 48 h, CCK-8, 48 h, mean ± SD, three independent experiments
Method: (§2) Tumor cell anti-proliferation activities were determined by cell counting kit-8 (CCK-8) assay.
as §1

HCT116 cells [2] = assay: CCK-8 anti-proliferation assay, HCT116; format: cell-based, human; conditions: Homo sapiens, HCT-116, 48 h, CCK-8, 48 h, mean ± SD, three independent experiments
Method: as §2, §1

Pharmacokinetic analysis = format: in vivo, Sprague–Dawley rats; conditions: for AUC(0-inf) / clearance / half-life / Vd / Cmax / Tmax: male, Sprague-Dawley, plasma; for AUC(0-inf): heading: AUC0-∞, Table S5, rat; for clearance / half-life / Vd / Cmax / Tmax / AUC0-∞: rat; for Vd: read-out: Vss
Method: All animal studies and procedures were approved by the Animal Ethics Committee of College of Chemistry and Chemical Engineering, Henan Normal University, China. Male Sprague–Dawley rats (220 ± 10 g, Shanghai Yuanxin Biological Co., Ltd., Shanghai, China) were used to evaluate drug pharmacokinetic properties. Briefly, compound 33a or 36b was dissolved in PBS containing 10% DMSO and 20% castor oil. Rats were treated with 1 mg/kg of compound 33a or 36b for intravenous injection and 2 mg/kg for oral intragastric administration. Blood samples were collected from each rat at 0, 0.083, 0.25, 0.5, 1, 2, 4, 6, 8, 12, and 24 h. Plasma was isolated from the blood samples by centrifugation (1200 rpm, 4 °C, 10 min. ThermoFisher Scientific, Thermo Electron LED GmbH, Zweigniederlassung Osterode Am Kalkberg, Osterode am Harz, Germany). Sample concentrations were determined by LC-MS/MS (API 4000, AB SCIEX) based on a standard curve. All data were calculated by Excel software.

[3] = tested on: c-MYC signal path in HCT116 cells; assay: Western blot of c-MYC and downstream proteins; format: cell-based, human
Method: Whole protein was extracted and separated by polyacrylamide gel electrophoresis (SDS-PAGE) and transferred onto nitrocellulose membranes. Membranes were blotted with CDK1, Cyclin B1, Caspase-3, BAX, BCL-2, PARP-1, γ-H2AX, P53, ATF4, CHOP, PERK, ATP6, LC3, Beclin1, P62, β-Catenin, c-MYC, MAX, UPP1, GAPDH, β-Actin, and β-Tubulin primary antibodies. Protein band analyses were performed with ImageJ software and protein expression levels were presented as a percentage difference compared to control.

c-MYC [4] = biological target: T1, c-MYC (Homo sapiens, UniProt P01106); assay: Surface plasmon resonance (SPR) assay; format: binding; conditions: c-MYC immobilized on CM5 chip, 25 °C
Method: SPR analyses to evaluate the interaction of thioheterocyclic nucleoside derivatives with c-MYC immobilized onto a CM5 sensor chip (Cytiva, BR100012, Sweden) were performed using a Biacore T200 apparatus (Cytiva, Sweden) at 25 °C. During the analyte–ligand interaction, the change of the refractive index was measured in real-time which allowed interaction results to be plotted as response units (RU) versus time.

HCT116 cells [5] = assay: Intracellular ROS measurement (DCFH-DA); format: cell-based, human; conditions: 48 h
Method: HCT116 cells were seeded in 96-well plates overnight and then the cells were treated with defined concentrations of compound 33a or 36b. In addition, cells were pretreated with 0.8 mmol/L NAC for 1 h. After 48 h, the cells were washed with PBS. DCFH-DA (100 μL, 100 μmol/L) was added to each well and incubated for 30 min at 37 °C, and the cells were washed twice with PBS. Finally, the cells were cultivated in a 100 μL culture medium and the fluorescence signals were detected with an EnVision® NexusTM Multi-Mode Microplate Reader or flow cytometry (Becton, Dickinson Company).

c-MYC [6] = biological target: T1, c-MYC; assay: Cellular thermal shift assay (CETSA); format: binding; set-up: HCT116 cells were lysed with mammalian protein extraction reagent (M-PER); endogenous in cells; host or cells: HCT116; conditions: 40-70 °C
Method: In short, the lysates were incubated with 33a or 36b or DMSO for 30 min. The […] were divided equally and individually heated at different temperatures (40–70 °C) for 3 min and then cooled on ice. After freeze-thawing twice with liquid nitrogen, the supernatant was centrifuged, collected, and boiled in a loading buffer. c-MYC protein was analyzed by Western blot.

c-MYC [7] = biological target: T1, c-MYC; assay: Drug affinity responsive target stability (DARTS) assay; format: binding; set-up: HCT116 cells were lysed with mammalian protein extraction reagent (M-PER); endogenous in cells; host or cells: HCT116; conditions: HCT116 lysate, pronase, 0-640 μmol/L
Method: HCT116 cells were lysed with mammalian protein extraction reagent (M-PER), centrifuged, and quantified by BCA protein assay. […] Proteolysis was performed by adding pronase solution at a ratio of 1:3200 for 30 min at room temperature and then stopped by adding SDS-PAGE sample loading buffer and boiling at 100 °C for 5 min. c-MYC protein was analyzed by Western blot.

T1 sequence (P01106 whole entry): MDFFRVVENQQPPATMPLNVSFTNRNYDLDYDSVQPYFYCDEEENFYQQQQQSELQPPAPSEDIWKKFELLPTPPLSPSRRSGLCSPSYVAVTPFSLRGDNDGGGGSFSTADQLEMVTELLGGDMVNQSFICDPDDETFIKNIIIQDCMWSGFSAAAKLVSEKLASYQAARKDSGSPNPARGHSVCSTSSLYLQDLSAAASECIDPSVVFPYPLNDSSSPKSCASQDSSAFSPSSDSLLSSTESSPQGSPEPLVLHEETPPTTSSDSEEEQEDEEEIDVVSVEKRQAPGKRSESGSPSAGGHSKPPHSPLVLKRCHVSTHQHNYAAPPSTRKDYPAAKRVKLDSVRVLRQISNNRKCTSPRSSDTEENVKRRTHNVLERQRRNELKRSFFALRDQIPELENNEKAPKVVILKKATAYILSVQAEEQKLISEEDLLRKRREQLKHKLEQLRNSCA

Compound | IC50 [1] | IC50 (HeLa cells) | IC50 (HCT116 cells [2]) | AUC(0-inf) (Pharmacokinetic analysis; 1 mg/kg, IV, 1 mg/kg) | AUC(0-inf) (Pharmacokinetic analysis; 2 mg/kg, oral, 2 mg/kg) | clearance (Pharmacokinetic analysis; IV, 1 mg/kg) | half-life (Pharmacokinetic analysis; IV, 1 mg/kg) | Vd (Pharmacokinetic analysis; IV, 1 mg/kg) | Cmax (Pharmacokinetic analysis; oral (i.g.), 2 mg/kg) | Tmax (Pharmacokinetic analysis; oral (i.g.), 2 mg/kg) | half-life (Pharmacokinetic analysis; oral (i.g.), 2 mg/kg) | protein levels of c-MYC, β-Catenin, MAX, P21 [3] | Kd (c-MYC [4]) | ROS levels (HCT116 cells [5]) | thermal stability of c-MYC (c-MYC [6]) | stability of c-MYC against proteolysis (c-MYC [7]) | AUC0-∞ (Pharmacokinetic analysis; IV, 1 mg/kg) | AUC0-∞ (Pharmacokinetic analysis; oral (i.g.), 2 mg/kg)
CCCSc1nc(F)nc2c1ncn2[C@@]1(C(=O)OCC)CSC[C@@H]1O (relative stereo) [36b] | 14.1 ± 1.24 µM | 6.35 ± 1.08 µM | 0.49 ± 0.08 µM | 8800 ng·h/mL | 1800 ng·h/mL | 1.89 mL/min/kg | 4.9 h | 3.54 L/kg | 276 ng/mL | 4 h | 4.1 h | c-MYC, β-Catenin, and MAX were significantly decreased, whereas the expression of p21 increased significantly in a dose-dependent manner | 206 µM | significantly increased ROS levels in a dose-dependent manner | increase the thermal stability of c-MYC in HCT116 cells from 40 to 70 °C | increase the stability of c-MYC in the process of protease hydrolysis | – | –
CCOC(=O)[C@]1(n2cnc3c(N4CCCCC4)nc(F)nc32)CSC[C@H]1O (racemic) [33a] | 8.45 ± 1.03 µM | 8.73 ± 1.02 µM | 0.27 ± 0.01 µM | – | – | 5.1 mL/min/kg | 5 h | 2.15 L/kg | 301 ng/mL | 4 h | 6.8 h | c-MYC, β-Catenin, and MAX were significantly decreased, whereas the expression of p21 increased significantly in a dose-dependent manner | 42.9 µM | significantly increased ROS levels in a dose-dependent manner | increase the thermal stability of c-MYC in HCT116 cells from 40 to 70 °C | increase the stability of c-MYC in the process of protease hydrolysis | 3270 ng·h/mL | 3310 ng·h/mL

— PMC12278645, “Design, synthesis, and antitumor activity of novel thioheterocyclic nucleoside derivatives by suppressing the c-MYC pathway” (Acta Pharmaceutica Sinica. B, 2025)
